{"source": "paper PMC9203742", "about": "(Nature Communications, 2022)", "key": {"[1]": {"system": "MLIs infected with AAV-hSyn-mGlu1^WT", "assay": "sAP-mediated currents (firing rate) of MLIs infected with AAV-hSyn-mGlu1^WT", "format": "cell-based, mouse", "description": "(§1) To monitor the excitability of MLIs, sAP-mediated current responses were extracellulary recorded by a loose cell-attached voltage-clamp at a holding potential of 0 mV. Glass electrodes used for cell-attached recordings had resistances of 3–5 MΩ when filled with ACSF. The current recordings from AAV-infected cells were performed 1−2 weeks after infection. The EPSCs and sAP-mediated currents were recorded using an Axopatch 200B amplifier (Molecular Devices), and the pClamp system (version 9.2; Molecular Devices) was used for data acquisition and analysis. The signals were filtered at 1 kHz and digitized at 4 kHz for the evoked EPSCs and 10 kHz for the sAP-mediated currents.\n(§2) Injection of viral solutions was performed as described previously with slight modifications. Briefly, under deep anesthesia, with an intraperitoneal injection of medetomidine (0.3 mg/kg), midazolam (4.0 mg/kg), and butorphanol (5.0 mg/kg), 4 µL of the solutions containing AAV mixture were directly injected into the vermis of cerebellar lobules V-VIII (200-300 µm in depth, 12 µL/h in rate) of WT mice (C57BL/6J, P20-P30) using glass pipette (30–40 µm in diameter) and microinjector (Nanoliter; World Precision Instruments). In all, 1−2 week after injection, the mice were used for each experiment."}, "[2]": {"system": "Purkinje cells in cerebellar slices from mGlu1^CBC/CBC mice", "assay": "chemLTD recording (PF-EPSC) in Purkinje cells of acute cerebellar slices, mGlu1^CBC/CBC mice", "format": "cell-based, mouse", "details": "DHPG 50 μM for 10 min; t = 31−35 min", "description": "(§3) Sagittal cerebellar slices were cut with a microslicer (Linear slicer Pro7; DOSAKA EM) in cutting solution buffer and then incubated in ACSF gassed with 5% CO2 and 95% O2 at room temperature.\n(§4) Whole-cell patch-clamp recordings were made from visually identified Purkinje cells using a 60× water-immersion objective attached to an upright microscope (BX51WI, Olympus) at room temperature, as described previously. […] Picrotoxin (100 µM; Sigma) was always added to the saline to block inhibitory synaptic transmission.\n(§5) To evoke EPSCs derived from CF (CF-EPSCs) and PF (PF-EPSCs) inputs onto Purkinje cells, square pulses were applied through a stimulating electrode placed on the granular layer and the molecular layer (50 µm away from the pial surface), respectively. The selective stimulation of CFs and PFs was confirmed by the paired-pulse depression (PPD) and paired-pulse facilitation (PPF) of EPSC amplitudes at a 50-ms interstimulus interval (ISI), respectively.\n(§6) For the LTD sessions, PF-EPSCs were recorded successively at a frequency of 0.1 Hz from Purkinje cells clamped at –80 mV. After a stable PF-EPSC amplitude had been observed for at least 5 min, a conjunctive stimulation that consisted of 30 single PF stimuli together with a 200 ms depolarizing pulse from a holding potential of –60 to +20 mV was applied for LTD induction.\n(§7) To chemically induce LTD (chemLTD), 50 µM (S)-3,5-dihydroxyphenylglycine (DHPG) or 1 µM Pd(sulfo-bpy) was applied for 10 min in a current-clamp mode. We often observed a transient decrease in PF-EPSC amplitude after the application of each drug probably because Purkinje cells under current-clamp conditions excite spontaneously to suppress presynaptic function through the retrograde signaling. Access resistances were monitored every 10 s by measuring the peak currents in response to 2 mV, 50-ms hyperpolarizing steps throughout the experiments; the measurements were discarded if the resistance changed by >20% of its original value. The normalized EPSC amplitude on the ordinate represents the EPSC amplitude for the average of six traces for 1 min divided by that of the average of six traces for 1 min immediately before the conjunctive stimulation or the drug application."}, "[3]": {"system": "MLIs infected with AAV-hSyn-mGlu1^CBC", "assay": "sAP-mediated currents (firing rate) of MLIs infected with AAV-hSyn-mGlu1^CBC", "format": "cell-based, mouse", "description": "as §1, §2"}, "[4]": {"system": "Purkinje cells in cerebellar slices from mGlu1^+/+ mice", "assay": "chemLTD recording (PF-EPSC) in Purkinje cells of acute cerebellar slices, mGlu1^+/+ mice", "format": "cell-based, mouse", "details": "DHPG 50 μM for 10 min; t = 31−35 min", "description": "as §3, §4, §5, §6, §7"}, "mGlu1 E60H/N264H mutant": {"target": "T1, mGlu1 E60H/N264H mutant (Rattus norvegicus, UniProt P23385, E60H/N264H)", "T1 construct": "expressed in transfected cells; host or cells: HEK293", "T1 sequence (P23385 19-1199 E60H/N264H)": "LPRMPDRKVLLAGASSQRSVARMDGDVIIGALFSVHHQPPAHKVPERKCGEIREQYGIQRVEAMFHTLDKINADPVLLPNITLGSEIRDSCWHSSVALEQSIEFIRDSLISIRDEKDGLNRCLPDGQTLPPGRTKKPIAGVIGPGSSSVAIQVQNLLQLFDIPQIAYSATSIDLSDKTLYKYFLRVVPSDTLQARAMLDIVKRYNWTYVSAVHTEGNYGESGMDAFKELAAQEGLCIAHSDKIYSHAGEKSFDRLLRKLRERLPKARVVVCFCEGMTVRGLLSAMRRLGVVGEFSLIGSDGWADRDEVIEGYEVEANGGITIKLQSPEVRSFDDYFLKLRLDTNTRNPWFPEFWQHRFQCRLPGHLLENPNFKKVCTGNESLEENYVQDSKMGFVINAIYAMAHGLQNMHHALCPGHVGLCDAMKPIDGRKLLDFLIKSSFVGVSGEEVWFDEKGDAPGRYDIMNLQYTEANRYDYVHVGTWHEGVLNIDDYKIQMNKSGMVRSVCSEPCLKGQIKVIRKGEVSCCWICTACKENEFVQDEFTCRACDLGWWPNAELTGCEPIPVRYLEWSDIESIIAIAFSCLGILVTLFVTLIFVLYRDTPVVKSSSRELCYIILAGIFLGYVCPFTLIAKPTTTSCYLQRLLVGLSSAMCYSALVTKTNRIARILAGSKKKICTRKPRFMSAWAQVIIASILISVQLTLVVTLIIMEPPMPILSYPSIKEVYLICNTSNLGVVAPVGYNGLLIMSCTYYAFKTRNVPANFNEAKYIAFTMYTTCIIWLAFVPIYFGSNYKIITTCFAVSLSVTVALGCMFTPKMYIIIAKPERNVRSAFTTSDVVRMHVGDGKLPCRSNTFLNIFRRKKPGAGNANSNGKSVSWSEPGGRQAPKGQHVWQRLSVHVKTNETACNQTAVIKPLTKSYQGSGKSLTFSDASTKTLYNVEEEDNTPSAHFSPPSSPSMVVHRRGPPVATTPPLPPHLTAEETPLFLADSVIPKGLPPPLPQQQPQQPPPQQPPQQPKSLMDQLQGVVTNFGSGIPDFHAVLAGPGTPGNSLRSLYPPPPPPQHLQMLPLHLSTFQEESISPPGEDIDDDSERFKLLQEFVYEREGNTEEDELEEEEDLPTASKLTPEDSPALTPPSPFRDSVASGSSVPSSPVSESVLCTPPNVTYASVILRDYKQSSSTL", "assay": "Fura-2 Ca2+ imaging in HEK293 cells expressing mGlu1 E60H/N264H", "format": "cell-based", "details": "10 μM metal ion or metal complex"}, "mGlu1 P58H/N264H mutant": {"target": "T2, mGlu1 P58H/N264H mutant (Rattus norvegicus, UniProt P23385, N264H/P58H)", "T2 construct": "expressed in transfected cells; host or cells: HEK293", "T2 sequence (P23385 19-1199 P58H/N264H)": "as the sequence (P23385 19-1199 E60H/N264H) above, with P40H, H42E counted along it", "assay": "Fura-2 Ca2+ imaging in HEK293 cells expressing mGlu1 P58H/N264H", "format": "cell-based", "details": "10 μM metal ion or metal complex"}, "[5]": {"system": "MLIs surrounded by mGlu1(N264H)-expressing Purkinje cells (AAV-L7-mGlu1^CBC)", "assay": "sAP-mediated currents (firing rate) of MLIs in slices infected with AAV-L7-mGlu1^CBC", "format": "cell-based, mouse", "details": "AAV-L7-mGlu1CBC", "description": "as §1, §2"}, "mGlu1 K61H/N264H mutant": {"target": "T3, mGlu1 K61H/N264H mutant (Rattus norvegicus, UniProt P23385, K61H/N264H)", "T3 construct": "expressed in transfected cells; host or cells: HEK293", "T3 sequence (P23385 19-1199 K61H/N264H)": "as the sequence (P23385 19-1199 E60H/N264H) above, with H42E, K43H counted along it", "assay": "Fura-2 Ca2+ imaging in HEK293 cells expressing mGlu1 K61H/N264H", "format": "cell-based", "details": "10 μM metal ion or metal complex"}, "[6]": {"details": "Suppl Fig14d, AAV-hSyn-mGlu1WT, mean of 12 cells"}, "[7]": {"details": "Suppl Fig14d, AAV-hSyn-mGlu1CBC, mean of 15 cells"}}, "note": "Several values for one entry are separate records, joined by “and”; a condition that tells them apart may be missing. Identical values can stand only once."}
{"smiles": "N[C@H](C(=O)O)c1cc(O)cc(O)c1", "note": "[DHPG, (S)-3,5-dihydroxyphenylglycine]", "values": [{"measurement": "firing rate, DHPG (50uM), AVE(Hz)", "setting": "[1]; Suppl Fig14d, AAV-hSyn-mGlu1WT, mean", "result": 10.6722, "unit": "Hz"}, {"measurement": "DHPG/CTL, AVE", "setting": "[1]; [6]", "result": 1.47}, {"measurement": "sAP events, DHPG (50uM), AVE", "setting": "[1]; [6]", "result": 320.167}, {"measurement": "Number of spontaneous action potentials (sAP)", "setting": "[1]; bath application of 50 µM DHPG", "result": "clearly increased"}, {"measurement": "chemLTD: normalized PF-EPSC amplitude", "setting": "[2]", "result": "56 ± 6", "unit": "%"}, {"measurement": "firing rate, DHPG (50uM), AVE(Hz)", "setting": "[3]; Suppl Fig14d, AAV-hSyn-mGlu1CBC, mean", "result": 11.5511, "unit": "Hz"}, {"measurement": "DHPG/CTL, AVE", "setting": "[3]; [7]", "result": 1.507}, {"measurement": "sAP events, DHPG (50uM), AVE", "setting": "[3]; [7]", "result": 346.533}, {"measurement": "Number of spontaneous action potentials (sAP)", "setting": "[3]; bath application of 50 µM DHPG", "result": "clearly increased"}, {"measurement": "chemLTD: normalized PF-EPSC amplitude", "setting": "[4]", "result": "55 ± 7", "unit": "%"}]}
{"smiles": "[Pd+2]", "note": "[Pd^2+]", "values": [{"measurement": "Receptor activation ([Ca2+]i change, Δratio)", "setting": "mGlu1 E60H/N264H mutant", "result": "also activated"}, {"measurement": "Receptor activation ([Ca2+]i change, Δratio)", "setting": "mGlu1 P58H/N264H mutant", "result": "also activated"}, {"measurement": "firing rate with Pd, AVE(Hz)", "setting": "[1]; AAV-hSyn-mGlu1WT, Pd", "result": 8.021, "unit": "Hz"}, {"measurement": "number of sAP-mediated currents with Pd, individual MLIs", "setting": "[1]; AAV-hSyn-mGlu1WT, Pd", "result": "195 and 227 and 165 and 235 and 230 and 276 and 213 and 238 and 272 and 431 and 142 and 211 and 228 and 253 and 240 and 294"}, {"measurement": "number of sAP-mediated currents with Pd, AVE", "setting": "[1]; AAV-hSyn-mGlu1WT, Pd, average of 16 MLIs", "result": 240.625}, {"measurement": "Pd/CTL, AVE", "setting": "[1]; AAV-hSyn-mGlu1WT, average of 16 MLIs", "result": 1.02}, {"measurement": "Pd/CTL, individual MLIs", "setting": "[1]; AAV-hSyn-mGlu1WT, ratio of sAP-mediated currents Pd vs CTL", "result": "0.9466 and 0.8833 and 1.065 and 1.119 and 1.05 and 1.091 and 1.081 and 0.9958 and 0.8947 and 1.005 and 0.9161 and 0.8474 and 1.013 and 1.182 and 1.106 and 1.126"}, {"measurement": "firing rate with Pd, AVE(Hz)", "setting": "[5]; Pd", "result": 8.376, "unit": "Hz"}, {"measurement": "number of sAP-mediated currents with Pd, individual MLIs", "setting": "[5]; Pd", "result": "269 and 246 and 275 and 319 and 316 and 259 and 286 and 137 and 343 and 147 and 282 and 292 and 186"}, {"measurement": "number of sAP-mediated currents with Pd, AVE", "setting": "[5]; Pd, average of 15 MLIs", "result": 251.267}, {"measurement": "Pd/CTL, AVE", "setting": "[5]; average of 15 MLIs", "result": 1.024}, {"measurement": "Pd/CTL, individual MLIs", "setting": "[5]; ratio of sAP-mediated currents Pd vs CTL", "result": "0.9181 and 1.134 and 0.9516 and 1.085 and 1.01 and 1.008 and 1.018 and 1.161 and 1.003 and 1.105 and 0.9786 and 0.9216 and 1.028 and 0.9928 and 1.051"}, {"measurement": "firing rate with Pd, AVE(Hz)", "setting": "[3]; AAV-hSyn-mGlu1CBC, Pd", "result": 9.847, "unit": "Hz"}, {"measurement": "number of sAP-mediated currents with Pd, AVE", "setting": "[3]; AAV-hSyn-mGlu1CBC, Pd, average of 22 MLIs", "result": 295.409}, {"measurement": "Pd/CTL, AVE", "setting": "[3]; AAV-hSyn-mGlu1CBC, average of 22 MLIs", "result": 1.392}, {"measurement": "Pd/CTL, individual MLIs", "setting": "[3]; AAV-hSyn-mGlu1CBC, ratio of sAP-mediated currents Pd vs CTL", "result": "1.204 and 2.167 and 1.052 and 0.9801 and 1.6822 and 1.455 and 1.074 and 1.288 and 1.082 and 1.081 and 1.083 and 2.412 and 1.119 and 3.478 and 1.177 and 1.12 and 1.045 and 1.16 and 1.215 and 1.142 and 1.333 and 1.265"}, {"measurement": "Receptor activation ([Ca2+]i change, Δratio)", "setting": "mGlu1 K61H/N264H mutant", "result": "also activated"}]}
